Values of other authors in patent EP4659595A1, “NICOTINE-POLYMER COMPLEX COMPRISING MULTIPLE NICOTINE FORMS” (Nicoventures Trading Limited, priority 2024, dated 2025).

Assays:
[1] = fats, alcohols, water
[2] = when isolated; converts via isomerization into trans-bixin (β-bixin)
[3] = partition coefficient between octanol and water; source of values not stated

Compound	solubility [1]	chemical stability [2]	logP [3]
CC(/C=C/C=C(C)/C=C/C(=O)O)=C\C=C\C=C(C)\C=C\C=C(C)\C=C\C(=O)O (stereo in doubt) [norbixin, (2E,4E,6E,8E,10E,12E,14E,16E,18E)-4,8,13,17-tetramethylicosa-2,4,6,8,10,12,14,16,18-nonaenedioic acid]	water soluble	–	–
COC(=O)/C=C/C(C)=C\C=C\C(C)=C\C=C\C=C(C)\C=C\C=C(C)\C=C\C(=O)O [bixin, (2E,4E,6E,8E,10E,12E,14E,16Z,18E)-20-methoxy-4,8,13,17-tetramethyl-20-oxoicosa-2,4,6,8,10,12,14,16,18-nonaenoic acid]	soluble in fats and alcohols but insoluble in water	chemically unstable when isolated	–
CC(C)[C@@H]1CC[C@@H](C)C[C@H]1OC(=O)CCC(=O)O [monomenthyl succinate]	–	–	3
ethyl benzoic acid	–	–	2.9
isopropyl benzoic acid	–	–	3.5
tocopherol succinate	–	–	10.2
